What was measured:
PRPK = PRPK (Homo sapiens (Human), UniProt Q96S44); experiment: Isothermal titration calorimetry (ITC), PRPK; type: binding; details: for Kd: 20 μM protein titrated with 200 μM test compound, 20 mM HEPES pH 7.5, 150 mM NaCl, 0.5 mM TCEP, 2% DMSO, 25° C, single site model; for PRPK binding Kd compared with pomalidomide: ITC, comparison in words with control Pomalidomide
Experimental: (§1) All calorimetric experiments were carried out using an Affinity ITC from TA Instruments (New Castle, Del.) equipped with an auto sampler in a buffer containing 20 mM HEPES, pH 7.5, 150 mM NaCl, 0.5 mM TCEP, and 2% DMSO at 25° C. 20 μM protein solution containing PRPK or Cereblon (CRBN) in the calorimetric cell was titrated with 200 μM of a test compound solution using 2 μL injection in 200 seconds intervals using a stirring speed at 125 rpm. Resulting isotherm was fitted with a single site model to yield thermodynamic parameters of ΔH, ΔS, stoichiometry, and Kd using NanoAnalyze software (TA instruments).

Cereblon (CRBN) = Cereblon (CRBN) (Homo sapiens (Human), UniProt Q96SW2); experiment: Isothermal titration calorimetry (ITC), Cereblon (CRBN); type: binding; details: for Kd: 20 μM protein titrated with 200 μM test compound, 20 mM HEPES pH 7.5, 150 mM NaCl, 0.5 mM TCEP, 2% DMSO, 25° C, single site model
Experimental: as §1

Sequence of PRPK (Q96S44 whole entry): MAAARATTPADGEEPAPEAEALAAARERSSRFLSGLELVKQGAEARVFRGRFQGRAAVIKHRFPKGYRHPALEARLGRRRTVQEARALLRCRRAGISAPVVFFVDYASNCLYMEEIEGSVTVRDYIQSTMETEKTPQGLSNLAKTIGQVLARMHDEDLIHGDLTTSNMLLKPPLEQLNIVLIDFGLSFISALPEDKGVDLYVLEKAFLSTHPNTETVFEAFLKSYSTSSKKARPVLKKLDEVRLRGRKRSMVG
Sequence of Cereblon (CRBN) (Q96SW2 whole entry, species assumed): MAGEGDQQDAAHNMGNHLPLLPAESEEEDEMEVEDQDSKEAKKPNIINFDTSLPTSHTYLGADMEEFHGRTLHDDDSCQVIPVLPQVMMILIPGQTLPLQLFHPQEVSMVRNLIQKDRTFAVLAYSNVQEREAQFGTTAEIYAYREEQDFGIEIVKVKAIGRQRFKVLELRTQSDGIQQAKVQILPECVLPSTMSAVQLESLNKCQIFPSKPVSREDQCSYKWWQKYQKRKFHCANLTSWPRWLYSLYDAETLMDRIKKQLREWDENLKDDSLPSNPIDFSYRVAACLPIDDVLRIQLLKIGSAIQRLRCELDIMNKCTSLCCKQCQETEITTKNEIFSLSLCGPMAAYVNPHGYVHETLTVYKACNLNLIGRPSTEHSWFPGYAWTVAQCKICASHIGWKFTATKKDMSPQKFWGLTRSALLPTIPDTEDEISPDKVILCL

SMILES: C[C@@]1(N2C(=O)c3ccc(-c4cn[nH]c4)c(O)c3C2=O)CCC(=O)NC1=O [Compound 22, (R)-4-hydroxy-2-(3-methyl-2,6-dioxopiperidin-3-yl)-5-(1H-pyrazol-4-yl)isoindoline-1,3-dione]
- Kd (PRPK): > 1000 µM
- Kd (Cereblon (CRBN)): > 1000 µM

SMILES: O=C1CCC(N2C(=O)c3ccc(-c4cn[nH]c4)c(O)c3C2=O)C(=O)N1 (centres unmarked) [Compound 13, 2-(2,6-dioxopiperidin-3-yl)-4-hydroxy-5-(1H-pyrazol-4-yl)isoindoline-1,3-dione]
- Kd (PRPK): 1.9 ± 1.7 µM
- PRPK binding Kd compared with pomalidomide (PRPK): lower than Pomalidomide
- Kd (Cereblon (CRBN)): 0.54 µM
- CRBN inhibition (conclusion in words from ITC) (Cereblon (CRBN)): not CRBN inhibitors

SMILES: C[C@@]1(N2C(=O)c3ccc(C(=O)O)cc3C2=O)CCC(=O)NC1=O [Compound 12, (R)-2-(3-methyl-2,6-dioxopiperidin-3-yl)-1,3-dioxoisoindoline-5-carboxylic acid]
- Kd (PRPK): 0.28 ± 0.08 µM
- PRPK binding Kd compared with pomalidomide (PRPK): lower than Pomalidomide
- Kd (Cereblon (CRBN)): > 1000 µM
- CRBN inhibition (conclusion in words from ITC) (Cereblon (CRBN)): not CRBN inhibitors

SMILES: C[C@@]1(N2C(=O)c3ccc(-c4n[nH]c(=S)o4)cc3C2=O)CCC(=O)NC1=O [Compound 30, (R)-2-(3-methyl-2,6-dioxopiperidin-3-yl)-5-(5-thioxo-4,5-dihydro-1,3,4-oxadiazol-2-yl)isoindoline-1,3-dione]
- Kd (PRPK): 0.36 ± 0.07 µM
- PRPK binding Kd compared with pomalidomide (PRPK): lower than Pomalidomide
- Kd (Cereblon (CRBN)): > 1000 µM
- CRBN inhibition (conclusion in words from ITC) (Cereblon (CRBN)): not CRBN inhibitors

From patent publication US20230271966A1, “PRPK INHIBITORS” (Dana-Farber Cancer Institute, Inc., priority 2020, published 2023)
